The values that follow come from patent publication US4730005A, “Leukotriene antagonist” (SmithKline Beckman Corporation, priority 1986, dated 1988).

Broadly, the ED50 is the midpoint of the dose-response relation.

In experiment [1] the test system is carrageenan peritonitis in mice. Nature of the experiment: carrageenan peritonitis in mice. In kind it is in vivo. To be noted: oral administration at 100 mg/kg.
Experiment [2] deals with arachidonic acid-induced inflammation in mice. Nature of the experiment: arachidonic acid-induced inflammation in mice. In kind it is in vivo.
Experiment [3] deals with LTD4 induced bronchoconstriction in guinea pigs. As to the kind of experiment: in vivo inhibition of LTD4 induced bronchoconstriction (airway resistance RL) in guinea pigs. To be noted: intravenous. The arrangement: species or system guinea pig (adult male albino Hartley strain). The procedure:
(§1) The leukotriene antagonist activity of the compounds of this invention is measured by the ability of the compounds to inhibit the leukotriene induced contraction of guinea pig tracheal tissues in vitro and to inhibit leukotriene induced bronchoconstriction in guinea pigs in vivo. The following methodologies were employed: In vitro: Guinea pig (adult male albino Hartley strain) tracheal spiral strips of approximate dimensions 2 to 3 mm cross-sectional width and 3.5 cm length were bathed in modified Krebs buffer in jacketed 10 ml tissue bath and continously aerated with 95% 02 /5% CO2. The tissues were connected via silk suture to force displacement transducers for recording isometric tension. The tissues were equilibrated for 1 hr., pretreated for 15 minutes with meclofenamic acid (1 μM) to remove intrinsic prostaglandin responses, and then pretreated for an additional 30 minutes with either the test compound or vehicle control. A cumulative concentration-response curve for LTD4 on triplicate tissues was generated by successive increases in the bath concentration of the LTD4. In order to minimize intertissue variability, the contractions elicited by LTD4 were standardized as a percentage of the maximum response obtained to a reference agonist, carbachol (10 μM).
Calculations: The averages of the triplicate LTD4 concentration-response curves both in the presence and absence of the test compound were plotted on log graph paper. The concentration of LTD4 needed to elicit 30% of the contraction elicited by carbachol was measured and defined as the EC30. The -log KB value for the test compound was determined by the following equations: [formula] In vivo: Anesthetized, spontaneously breathing guinea pigs (Adult male albino Hartley strain) were monitored on a Buxco pulmonary mechanics computer. Changes in airway resistance (RL) were calculated by the computer on a breath-by-breath basis at isovolumic points from signals measuring airflow and transpulmonary pressure using differential pressure transducers. Animals received either test compound or vehicle control intravenously via the jugular vein. LTD4 was then injected into the jugular vein. The bronchoconstriction produced was reflected by % changes in airways resistance relative to the baseline values obtained prior to injection of the test compound or vehicle control. Each guinea pig received either vehicle control or test compound.
Calculations: The average of 3-6 animals per treatment was calculated using the % changes in the pulmonary parameters for control and test compound-treated animals. The average % inhibition by the test compound was calculated from the following equation: [formula]

In experiment [4] the target is T1, leukotriene D4 (LTD4) induced contraction of guinea pig tracheal tissues (Cavia porcellus, UniProt Q2NNR5).
T1 construct: Guinea pig (adult male albino Hartley strain) tracheal spiral strips; from tissue; host or cells: guinea pig trachea (spiral strips, adult male albino Hartley strain)
T1 sequence (Q2NNR5 1-340): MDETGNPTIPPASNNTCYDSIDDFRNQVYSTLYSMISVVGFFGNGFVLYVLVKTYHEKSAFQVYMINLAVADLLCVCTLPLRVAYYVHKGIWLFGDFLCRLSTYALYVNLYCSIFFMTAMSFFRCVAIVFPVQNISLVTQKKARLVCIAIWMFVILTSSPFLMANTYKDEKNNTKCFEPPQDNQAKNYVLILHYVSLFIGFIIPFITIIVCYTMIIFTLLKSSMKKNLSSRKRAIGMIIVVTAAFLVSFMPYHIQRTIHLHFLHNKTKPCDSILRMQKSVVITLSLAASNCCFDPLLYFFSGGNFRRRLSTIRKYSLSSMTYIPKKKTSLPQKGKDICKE
As to the kind of experiment: in vitro inhibition of LTD4 induced contraction of guinea pig tracheal spiral strips. In kind it is cell-based, guinea pig (adult male albino Hartley strain). Particulars: guinea pig trachea, LTD4 agonist, 30 min pretreatment with test compound. As for the experimental part:
as §1, with “μM). Calculations: The averages of the triplicate LTD4 concentration-response curves both in the presence and absence of the test compound were plotted on log graph paper. The concentration of LTD4 needed to elicit 30% of the contraction elicited by carbachol was measured and defined as the EC30. The -log KB value for the test compound was determined by the following equations: [formula] In vivo: Anesthetized, spontaneously breathing guinea pigs (Adult male albino Hartley strain) were monitored on a Buxco pulmonary mechanics computer. Changes in airway resistance (RL) were calculated by the computer on a breath-by-breath basis at isovolumic points from signals measuring airflow and transpulmonary pressure using differential pressure transducers. Animals received either test compound or vehicle control intravenously via the jugular vein. LTD4 was then injected into the jugular vein. The bronchoconstriction produced was reflected by % changes in airways resistance relative to the baseline values obtained prior to injection of the test compound or vehicle control. Each guinea pig received either vehicle control or test compound.” for “μM).”

Take `O=C(O)CCSC(SCCC(=O)O)c1ccccc1CCCCCCCCc1ccccc1` [2 2 C8 H16 phenyl H, 4,6-Dithia-5-[2-(8-phenyloctyl)phenyl]nonanedioic acid]: the “activity against carrageenan peritonitis” value in experiment [1] is “demonstrated activity”. In experiment [2] (Mus musculus, oral), this molecule yielded a median effective dose (ED50) of 105 mg/kg. Further, the anti-inflammatory activity entry in experiment [2] (oral administration), in experiment [2] (subcutaneous administration) and in experiment [2] (topical administration) was “demonstrated anti-inflammatory activity” in each case. In addition, the “% Inhibition of RL” value in experiment [3] ((1) 5 mg/kg) worked out at 100%; in experiment [3] ((2) 5 mg/kg), 95.3%. Further, the Kb in experiment [4] is 0.316 µM.

Regarding `O=C(O)CCSC(SCCC(=O)O)c1ccccc1CCCCCCCCCCCC(F)(F)F` [2 2 C11 H22 CF3 H, 4,6-Dithia-5-[2-(12,12,12-trifluorododecyl)phenyl]nonanedioic acid], the “% Inhibition of RL” value in experiment [3] (5 mg/kg) is given as 30.4%. In experiment [4], the Kb is 0.631 µM.

For `CCCCCCCCCCCCc1ccccc1C(SCCC(=O)O)SCCC(=O)O` [2 2 C12 H25 H, 4,6-Dithia-5-(2-dodecylphenyl)nonanedioic acid], the “% Inhibition of RL” value in experiment [3] (5 mg/kg) is on record as 96.5%. The Kb in experiment [4] is 0.631 µM.

In the case of `CCCCCCCCCCc1ccccc1C(SCCC(=O)O)SCCC(=O)O` [2 2 C10 H21 H, 4,6-dithia-5-(2-decylphenyl)nonanedioic acid], the “% Inhibition of RL” value in experiment [3] (5 mg/kg) was 60.7%. In addition, the Kb in experiment [4] was 0.316 µM.
